The subject of test [1] is AT1R (angiotensin II type I receptor). The experiment in a line: AT1R protein expression (Western blot) in angiotensin II-treated HUVEC cells. The format is cell-based, Human. The following applies: HUVEC cells treated with Ang II and CHP, versus Ang II-treated control; corrected by β-actin. The method, then:
(§1) Human umbilical vein endothelial cells (HUVEC, CRL-1730) were obtained from the American Type Culture Collection (ATCC), and EBM-2 basal medium and EGM-2 MV microvascular endothelial cell growth medium SingleQuots supplements were purchased from Lonza.
(§2) HUVEC cells were cultured in EBM-2 medium supplemented with EGM-2 MV SingleQuots supplements at 37° C. and 5% CO2 conditions. The medium was replaced every 2 to 3 days, and subculture was performed at 70 to 80% confluency.
(§3) HUVEC cells treated with angiotensin II and CHP were placed in 500 uL of RIPA buffer containing protease and phosphatase inhibitors, and then pulverized by using IKA's T10 homogenizer. […] The supernatant was collected and the protein concentration was measured by BCA quantitation, and the same amount of samples was separated by using the Bolt TM protein gel electrophoresis system, and then transferred to a nitrocellulose membrane. […] After washing 3 times for 10 minutes with TBST, the expression level was measured by reacting with ECL. The size of the appearing band was quantified by using the ImageJ program and corrected by dividing the size value of each band by the size value of the β-actin band. Statistical significance was analyzed by using Student's t-test statistical method with angiotensin II-treated control group (Ang II) (*p<0.05, […], ***p<0.0005).
On the technique in general: Immunoblotting shows a protein as a band on a membrane.

The subject of test [2] is ⅚ nephrectomy rats. The test is described as follows: Prophylactic (pre-treatment) blood pressure control in ⅚ nephrectomy rats. The test is classed as in vivo. The following applies: ⅚ nephrectomy SD rats; oral 35 mg/kg every other day for 8 weeks from 3 days before nephrectomy; tail artery; SHAM 127.8, disease control (Nx) 196.2. The text has this:
1-1. Construction of ⅚ Nephrectomy Model and Cyclo-HisPro Administration
The kidney is involved in water and sodium metabolism and is closely associated with the renin-angiotensin system, and thus, kidney disease itself, that is, glomerulitis or renal failure, may cause hypertension and play an important role in the development of essential hypertension. Chronic renal failure through nephrectomy in rats leads to continued progression of hypertension, uremia, proteinuria and glomerulosclerosis.
After pre-bringing 7-week-old SD rats purchased from Koatech Co., Ltd. for more than one week, the experimental group underwent surgery in two stages. […]
In order to reduce the error range of blood pressure measurement, the experimental animals were calibrated in the holder of a blood pressure meter (BP-2000 blood pressure analysis system, rat platform 2-channel, Visitech Systems, Apex, NC, USA) and then acclimatized in a heating chamber at 37° C. for 30 minutes, and the systolic blood pressure was measured at least 5 times in the tail artery to obtain the average value. […]

For test [3], the system named is AT2R (angiotensin II type 2 receptor). The test is described as follows: AT2R protein expression (Western blot) in angiotensin II-treated HUVEC cells. The format is cell-based, Human. The following applies: HUVEC cells treated with Ang II and CHP, versus Ang II-treated control; corrected by β-actin. The method, then: as §1, §2, §3
The next test relates to HMVEC-L cells. The experiment in a line: NO production (DAF-FM DA fluorescence) in HMVEC-L cells. The format is cell-based, Human. The conditions noted are these: CHP 0, 1, 10, 100 and 500 μM, serum-free medium, 2 hours, versus control not treated with CHP. The procedure: Human lung microvascular cells (HMVEC-L, CC2527) were obtained from the American Type Culture Collection (ATCC), and EBM-2 basal medium and EGM-2 MV microvascular endothelial cell growth medium SingleQuots supplements were purchased from Lonza.
HUVEC-L cells were cultured in EBM-2 medium supplemented with EGM-2 MV SingleQuots at 37° C. and 5% CO2 conditions. The medium was replaced every 2 to 3 days, and subculture was performed at 70 to 80% confluency.
5×10^4 cells were placed in a black 96-well plate, incubated for 24 hours and treated with CHP at concentrations of 0, 1, 10, 100 and 500 μM in serum-free medium, respectively, and cultured at 37° C. and 5% CO2 conditions for 2 hours. DAF-FM DA (DAF-FM Diacetate; Invitrogen) at a concentration of 5 μM was added and further incubated for 30 minutes, and it was washed once with PBS and observed with a fluorescence microscope at FITC wavelength. Photographs were taken at the same exposure time, and the fluorescence intensity of each cell was measured by using the ImageJ tool. Statistical significance was analyzed by one-way ANOVA statistical method, and comparison with the control group which was not treated with CHP was analyzed by Dunnett's test (****p<0.0001).

The subject of the next test is eNOS gene. The test is described as follows: eNOS gene expression (real-time PCR) in SVEC4-10 cells. The following applies: CHP 0, 10, 100 and 250 μM, serum-free medium, 2 hours, corrected by β-actin. The test is classed as cell-based, mouse. The method, then: SVEC4-10 (CRL-2181), which is a mouse endothelial cell line, was obtained from the American Type Culture Collection (ATCC), and RPMI-1640 medium and FBS were purchased from Hyclone.
SVEC4-10 cells were cultured at 37° C. and 5% CO2 conditions by using RPMI-1640 medium containing 10% FBS and 1% penicillin/streptomycin, and subculture was performed every 2 days.
SVEC4-10 cells were placed in a 6-well plate at 5×10^5 cells and cultured for 24 hours. CHP was treated at concentrations of 0, 10, 100 and 250 μM in serum-free medium, respectively, and then it was cultured at 37° C. and 5% CO2 conditions for 2 hours. Thereafter, the medium was removed, and it was washed once with cold PBS and then immediately dissolved using NucleoZOL.
For RNA extraction, RNA was extracted according to the manufacturer's total RNA isolation protocol by using NucleoZOL (MACHEREY-NAGEL), and 1 μg of RNA was subjected to reverse transcription polymerase chain reaction to synthesize cDNA by using iScript cDNA synthesis kit (Bio-Rad). The synthesized cDNA was analyzed by real-time PCR using iQ SYBR Green Supermix (Bio-Rad) by using the primer set of the eNOS gene.
Each gene expression value was corrected by dividing by the expression value of β-actin, which is a housekeeping gene. Statistical significance was analyzed by the Student's t-test statistical method (*p<0.05).
Background: Real-time PCR tracks product formation cycle by cycle.

Test [4] concerns ⅚ nephrectomy rats. The experiment in a line: Therapeutic (post-treatment) blood pressure control in ⅚ nephrectomy rats. The test is classed as in vivo. The following applies: ⅚ nephrectomy SD rats; oral 35 mg/kg every other day for 6 weeks from 2 weeks after nephrectomy; tail artery; SHAM 127.8, disease control (Nx) 196.2. The method, then:
After pre-bringing 7-week-old SD rats purchased from Koatech Co., Ltd. for more than one week, the experimental group underwent surgery in two stages. After general anesthesia, incision was performed along the midline of the abdomen to separate the left kidney from the adrenal glands and surrounding tissues, and after holding the renal blood vessel with forceps to prevent bleeding, the upper ⅓ and lower ⅓ of the left kidney were removed, and after 1 week, general anesthesia was performed again, and the entire right kidney was removed to complete a ⅚ nephrectomy model.
In order to reduce the error range of blood pressure measurement, the experimental animals were calibrated in the holder of a blood pressure meter (BP-2000 blood pressure analysis system, rat platform 2-channel, Visitech Systems, Apex, NC, USA) and then acclimatized in a heating chamber at 37° C. for 30 minutes, and the systolic blood pressure was measured at least 5 times in the tail artery to obtain the average value. The significance of the experimental results was verified by performing t-test for each group of the disease control group (Nx), the normal control group and the Cyclo-HisPro administration group, and there was a statistically significant difference (**p<0.005, ***p<0.0005, ****p<0.00005).
2-1. Construction of ⅚ Nephrectomy Model and Administration of Cyclo-HisPro […]

The next test has as its system VE-cadherin. The experiment in a line: VE-cadherin protein expression (Western blot) in angiotensin II-treated HUVEC cells. The conditions noted are these: HUVEC cells treated with Ang II and CHP, versus Ang II-treated control; corrected by β-actin. The format is cell-based, Human. The procedure: as §1, §2, §3

Structures are written as SMILES.

As to `O=C1N[C@@H](Cc2cnc[nH]2)C(=O)N2CCC[C@@H]12` [Cyclo-HisPro], the AT1R protein expression entry in test [1] is given as “statistically significantly decreased”. Further, the values for the systolic blood pressure in the test on ⅚ nephrectomy rats [2] and in the test on ⅚ nephrectomy rats [4] were 156.7 mmHg and 171.6 mmHg, respectively. The AT2R protein expression result in test [3] is recorded as “tended to increase”. Besides, in the test on HMVEC-L cells, the “NO production (intensity of DAF-FM DA fluorescence)” value was “significantly increased”. Further, in the test on eNOS gene, the “expression of the eNOS gene” value was “significantly increased”. Also, the VE-cadherin protein expression result with VE-cadherin is “statistically significantly increased”.
